Like-named read-outs stand apart in the source and are kept apart here.
Molecular target: T1, Glutaminase(Brain) (Mus musculus, UniProt D3Z7P3)
T1 sequence (D3Z7P3 55-674): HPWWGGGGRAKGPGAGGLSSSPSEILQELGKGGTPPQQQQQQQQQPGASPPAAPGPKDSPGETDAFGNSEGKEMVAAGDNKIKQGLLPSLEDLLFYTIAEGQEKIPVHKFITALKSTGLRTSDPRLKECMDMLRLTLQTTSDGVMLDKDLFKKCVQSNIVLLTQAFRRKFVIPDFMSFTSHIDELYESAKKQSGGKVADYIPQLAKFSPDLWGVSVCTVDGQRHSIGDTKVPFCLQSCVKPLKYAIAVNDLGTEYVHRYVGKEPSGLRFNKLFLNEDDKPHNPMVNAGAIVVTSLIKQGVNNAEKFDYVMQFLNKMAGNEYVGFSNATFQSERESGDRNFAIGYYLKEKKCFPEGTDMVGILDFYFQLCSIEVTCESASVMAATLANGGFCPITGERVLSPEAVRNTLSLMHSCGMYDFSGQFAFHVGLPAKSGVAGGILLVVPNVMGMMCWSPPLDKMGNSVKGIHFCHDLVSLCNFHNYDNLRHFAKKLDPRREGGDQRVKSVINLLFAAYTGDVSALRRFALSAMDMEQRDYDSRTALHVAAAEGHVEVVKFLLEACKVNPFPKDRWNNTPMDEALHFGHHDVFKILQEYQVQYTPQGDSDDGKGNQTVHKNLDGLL
Assay: Glutaminase enzyme activity using glutaminase enzyme from mice brain/kidney homogenate (Nessler's reagent, ammonia)
Type: biochemical
Conditions: for inhibition at 0.1 µM: read-out: Glutaminase(Brain) activity % inhibition 0.1 μM; for inhibition at 1 µM: read-out: Glutaminase(Brain) activity % inhibition @1 μM
Protocol: Assay 3: Determination of Glutaminase Enzyme Activity Using Glutaminase Enzyme from Mice Brain/Kidney
Step 1: Preparation of Tissue Homogenates:
Male Balb/c mice were administered 0.28 M ammonium chloride in drinking water for 7 days. The animals were sacrificed and brain/kidney organs collected on dry ice. […] The tissue was homogenized and supernatants were stored at −80° C. until the enzyme assay was performed.
Aim: Compounds were assessed for their ability to inhibit the enzymatic activity of L-glutaminase present in mice brain/kidney homogenate.
Protocol: The assay was performed using a colorimetric method using Nessler's Reagent by quantifying the amount of ammonia formed as a by product during the enzymatic conversion of L-glutamine to glutamate. In the routine assay, 16 μl of tissue homogenate is added to 33 μl of Tris-Hcl phosphate buffer (pH 8) along with 1 μl of DMSO/test compound containing the desired final concentration and vortexed briefly. 50 μl of 20 mM L-glutamine Tris buffer is added to start the reaction and incubated for 15 minutes at 37° C. The ammonia formed is detected by adding 20 μl of reaction mixture to cold water in a 96 well plate followed by 20 μl of Nessler's reagent. The colour developed is measured at 450 nm. Data Analysis: Activity of the test compound is reported as % inhibition and the data is analyzed using Graphpad Prism (Graphpad software; San Diego Calif.) for IC50 determination.

Row | SMILES | inhibition at 0.1 µM (0.1 μM, mice brain homogenate) | inhibition at 1 µM (1 μM, mice brain homogenate) | inhibition at 0.1 µM | inhibition at 1 µM
1 | O=C(Cc1cccc(OC(F)(F)F)c1)Nc1ccc(N2CCCC(c3nnc(NC(=O)Cc4ccccn4)s3)C2)cn1 (racemic) [Example 2, (RS)-2-(Pyridin-2-yl)-N-(5-(1-(6-(2-(3-(trifluoromethoxy)phenyl)acetamido)pyridin-3-yl)piperidin-3-yl)-1,3,4-thiadiazol-2-yl)acetamide] | < 25% | 25 to 50% | – | –
2 | O=C(Cc1cccc(OC(F)(F)F)c1)Nc1ccc(N2CCCC(c3nnc(NC(=O)Cc4ccccn4)s3)C2)cn1 (single isomer, unassigned) [Example 2A, (R) or (S) 2-(Pyridin-2-yl)-N-(5-(1-(6-(2-(3-(trifluoromethoxy)phenyl)acetamido)pyridin-3-yl)piperidin-3-yl)-1,3,4-thiadiazol-2-yl)acetamide] | < 25% | < 25% | – | –
3 | O=C(Cc1cccc(OC(F)(F)F)c1)Nc1ccc(N2CCCC(c3nnc(NC(=O)Cc4cccnc4)s3)C2)cn1 (single isomer, unassigned) [Example 3B, (S) or (R) 2-(Pyridin-3-yl)-N-(5-(1-(6-(2-(3-(trifluoromethoxy)phenyl)acetamido)pyridine-3-yl)piperidin-3-yl)-1,3,4-thiadiazol-2-yl)acetamide] | < 25% | < 25% | – | –
4 | O=C(Cc1cccc(OC(F)(F)F)c1)Nc1ccc(N2CCC(c3nnc(NC(=O)Cc4ccccn4)s3)CC2)cn1 [Example 1, 2-(Pyridin-2-yl)-N-(5-(1-(6-(2-(3-(trifluoromethoxy)phenyl)acetamido)pyridin-3-yl)piperidin-4-yl)-1,3,4-thiadiazol-2-yl)acetamide] | – | – | < 25% | 50 to 75%
5 | N#Cc1cccc(CC(=O)Nc2nnc(C3CCN(c4ccc(NC(=O)Cc5cccc(OC(F)(F)F)c5)nc4)CC3)s2)c1 [Example-5, 2-(3-Cyanophenyl)-N-(5-(1-(6-(2-(3-(trifluoromethoxy)phenyl)acetamido)pyridin-3-yl)piperidin-4-yl)-1,3,4-thiadiazol-2-yl)acetamide] | < 25% | 25 to 50% | – | –
6 | O=C(Cc1ccccn1)Nc1ccc(N2CCC(c3nnc(NC(=O)Cc4cccc(OC(F)(F)F)c4)s3)CC2)cn1 [Example-6, 2-(Pyridin-2-yl)-N-(5-(4-(5-(2-(3-(trifluoromethoxy)phenyl)acetamido)-1,3,4-thiadiazol-2-yl)piperidin-1-yl)pyridin-2-yl)acetamide] | < 25% | < 25% | – | –
7 | O=C(Cc1cccc(OC(F)(F)F)c1)Nc1ccc(N2CCCC(c3nnc(NC(=O)Cc4ccccc4Cl)s3)C2)nn1 (centres unmarked) [Example-13, 2-(2-Chlorophenyl)-N-(5-(1-(6-(2-(3-(trifluoromethoxy)phenyl)acetamido)pyridazin-3-yl)piperidin-3-yl)-1,3,4-thiadiazol-2-yl)acetamide] | < 25% | 50 to 75% | – | –
8 | O=C(Cc1cccnc1)Nc1ccc(N2CCC(c3nnc(NC(=O)Cc4c(F)ccc(F)c4F)s3)CC2)nn1 [Example-19, 2-(Pyridin-3-yl)-N-(6-(4-(5-(2-(2,3,6-trifluorophenyl)acetamido)-1,3,4-thiadiazol-2-yl)piperidin-1-yl)pyridazin-3-yl)acetamide] | 50 to 75% | 75 to 100% | – | –
9 | O=C(Cc1ccccn1)Nc1ccc(N2CCC(c3nnc(NC(=O)Cc4c(F)ccc(F)c4F)s3)CC2)nn1 [Example-20, 2-(Pyridin-2-yl)-N-(6-(4-(5-(2-(2,3,6-trifluorophenyl)acetamido)-1,3,4-thiadiazol-2-yl)piperidin-1-yl)pyridazin-3-yl)acetamide] | 25 to 50% | 50 to 75% | – | –
10 | O=C(Cc1ccccn1)Nc1ccc(N2CCC(c3nnc(NC(=O)Cc4cccc(F)c4F)s3)CC2)nn1 [Example-21, 2-(2,3-Difluorophenyl)-N-(5-(1-(6-(2-(pyridin-2-yl)acetamido)pyridazin-3-yl)piperidin-4-yl)-1,3,4-thiadiazol-2-yl)acetamide] | 50 to 75% | 75 to 100% | – | –
11 | O=C(Cc1ccccn1)Nc1ccc(N2CCC(c3nnc(NC(=O)Cc4ccc(F)c(F)c4)s3)CC2)nn1 [Example-22, 2-(3,4-Difluorophenyl)-N-(5-(1-(6-(2-(pyridin-2-yl)acetamido)pyridazin-3-yl)piperidin-4-yl)-1,3,4-thiadiazol-2-yl)acetamide] | 50 to 75% | 75 to 100% | – | –
12 | O=C(Cc1ccccn1)Nc1ccc(N2CCC(c3nnc(NC(=O)Cc4ccccc4F)s3)CC2)nn1 [Example-23, 2-(2-Fluorophenyl)-N-(5-(1-(6-(2-(pyridin-2-yl)acetamido)pyridazin-3-yl)piperidin-4-yl)-1,3,4-thiadiazol-2-yl)acetamide] | 50 to 75% | 75 to 100% | – | –
13 | O=C(Cc1ccccn1)Nc1ccc(N2CCC(c3nnc(NC(=O)Cc4cccc(F)c4)s3)CC2)nn1 [Example-24, 2-(3-Fluorophenyl)-N-(5-(1-(6-(2-(pyridin-2-yl)acetamido)pyridazin-3-yl)piperidin-4-yl)-1,3,4-thiadiazol-2-yl)acetamide] | 50 to 75% | 75 to 100% | – | –
14 | O=C(Cc1ccccn1)Nc1ccc(N2CCC(c3nnc(NC(=O)Cc4ccc(F)cc4)s3)CC2)nn1 [Example-25, 2-(4-Fluorophenyl)-N-(5-(1-(6-(2-(pyridin-2-yl)acetamido)pyridazin-3-yl)piperidin-4-yl)-1,3,4-thiadiazol-2-yl)acetamide] | 50 to 75% | 75 to 100% | – | –
15 | COc1ccccc1CC(=O)Nc1nnc(C2CCN(c3ccc(NC(=O)Cc4ccccn4)nn3)CC2)s1 [Example-26, 2-(2-Methoxyphenyl)-N-(5-(1-(6-(2-(pyridin-2-yl)acetamido)pyridazin-3-yl)piperidin-4-yl)-1,3,4-thiadiazol-2-yl)acetamide] | 50 to 75% | 75 to 100% | – | –
16 | O=C(Cc1ccccn1)Nc1ccc(N2CCC(c3nnc(NC(=O)Cc4ccccc4Cl)s3)CC2)nn1 [Example-27, 2-(2-Chlorophenyl)-N-(5-(1-(6-(2-(pyridin-2-yl)acetamido)pyridazin-3-yl)piperidin-4-yl)-1,3,4-thiadiazol-2-yl)acetamide] | 50 to 75% | 75 to 100% | – | –
17 | O=C(Cc1ccccn1)Nc1ccc(N2CCC(c3nnc(NC(=O)Cc4cc(Cl)ccc4C(F)(F)F)s3)CC2)nn1 [Example-28, 2-(5-Chloro-2-(trifluoromethyl)phenyl)-N-(5-(1-(6-(2-(pyridin-2-yl)acetamido)pyridazin-3-yl)piperidin-4-yl)-1,3,4-thiadiazol-2-yl)acetamide] | 50 to 75% | 50 to 75% | – | –
18 | O=C(Cc1ccccn1)Nc1ccc(N2CCC(c3nnc(NC(=O)Cc4ccc(Cl)cc4)s3)CC2)nn1 [Example-29, 2-(4-Chlorophenyl)-N-(5-(1-(6-(2-(pyridin-2-yl)acetamido)pyridazin-3-yl)piperidin-4-yl)-1,3,4-thiadiazol-2-yl)acetamide] | 50 to 75% | 75 to 100% | – | –
19 | O=C(Cc1cccc(OC(F)(F)F)c1)Nc1ccc(N2CCC(c3nnc(NC(=O)Cc4ccc5ncccc5c4)s3)CC2)nn1 [Example-30, 2-(Quinolin-6-yl)-N-(5-(1-(6-(2-(3-(trifluoromethoxy)phenyl)acetamido)pyridazin-3-yl)piperidin-4-yl)-1,3,4-thiadiazol-2-yl)acetamide] | 50 to 75% | 75 to 100% | – | –

Reference: patent US10611759B2, “Glutaminase inhibitors” (Rhizen Pharmaceuticals SA, priority 2014, dated 2020)
